Two molecules from ChEMBL document CHEMBL3992569, “Opioid Receptor Activity and Analgesic Potency of DPDPE Peptide Analogues Containing a Xylene Bridge” (ACS Med Chem Lett, 2017) can be followed below.

Active and inactive are the calls of the source. The calls are words filed in the database; no cut-off is given here.

Assay [1] concerns Mus musculus. Briefly: Antinociceptive activity in CD-1 mouse model of thermal-induced nociception assessed as increase in latency to respond with hind paw lick or jumping at 23 nmol/mouse, icv measured 45 mins post dose by hot plate test. The assay is classed as functional.
Assay [2] concerns Mus musculus. Briefly: Antinociceptive activity in CD-1 mouse model of thermal-induced nociception assessed as increase in latency to tail withdrawal at 23 nmol/mouse, icv measured 45 mins post dose by tail flick test. The assay is classed as functional.
Assay [3] relates to Mus musculus. The assay is described as follows: Analgesic activity in CD-1 mouse model of formalin-induced pain assessed as increase in latency to respond with hind paw lick or biting at 150 nmol/mouse, sc administered 15 mins prior to formalin injection measured up to 40 mins post dose. In kind it is functional, organism-based.
Assay [4] concerns Mus musculus. Briefly: Antinociceptive activity in CD-1 mouse model of thermal-induced nociception assessed as increase in latency to respond with hind paw lick or jumping at 23 nmol/mouse, icv measured 15 to 60 mins post dose by hot plate test relative to control. In kind it is functional. In general terms: Thermal pain tests record how soon the animal reacts.
In assay [5] the test system is Mus musculus. Briefly: Antinociceptive activity in CD-1 mouse model of thermal-induced nociception assessed as increase in latency to tail withdrawal at 23 nmol/mouse, icv measured 15 to 60 mins post dose by tail flick test relative to control. The assay is classed as functional.

For the molecule `CC1(C)SSC(C)(C)[C@@H](NC(=O)[C@@H](N)Cc2ccc(O)cc2)C(=O)NCC(=O)N[C@@H](Cc2ccccc2)C(=O)N[C@H]1C(=O)O`, the result with Mus musculus [1] and in the assay on Mus musculus [2] was Active. For the same molecule, the outcome in the assay with Mus musculus [3] was inactive.

In the case of `CC1(C)SCc2cccc(c2)CSC(C)(C)[C@@H](NC(=O)[C@@H](N)Cc2ccc(O)cc2)C(=O)NCC(=O)N[C@@H](Cc2ccccc2)C(=O)N[C@H]1C(=O)O.O=C(O)C(F)(F)F`, the MPE in the assay with Mus musculus [4] and in the assay on Mus musculus [5] was over 60% in each case. Besides, the result in the assay with Mus musculus [3] was Active.
